In patent US7129356B2, “Farnesyl transferase inhibiting 4-substituted quinoline and quinazoline derivatives” (Janssen Pharmaceutica N.V., priority 2000, dated 2006) one finds melting point data, which are given here for ten compounds.

Broadly, the melting point is the temperature of the solid-liquid transition. `O=c1cc(Oc2ccccc2)c2cc(C(c3ccc(Cl)cc3)n3ccnc3)ccc2[nH]1` (racemic) [Example B1, (±)-6-[(4-chlorophenyl)-1H-imidazol-1-ylmethyl]-4-phenoxy-2(1H)-quinolinone] showed a melting point of 233.3 °C.
Regarding `Cn1cncc1C(O)(c1ccc(Cl)cc1)c1ccc2c(c1)c(CCc1cccc(Cl)c1)cc(=O)n2C` (stereo not shown) [Example B2, 4-[2-(3-chlorophenyl)ethyl]-6-[(4-chlorophenyl)hydroxy(1-methyl-1H-imidazol-5-yl)methyl]-1-methyl-2(1H)-quinolinone], the melting point amounted to 190 °C.
Take `Cn1cncc1C(N)(c1ccc(Cl)cc1)c1ccc2c(c1)c(CCc1cccc(Cl)c1)cc(=O)n2C` (stereo not shown) [Example B3, 6-[amino(4-chlorophenyl)(1-methyl-1H-imidazol-5-yl)methyl]-4-[2-(3-chlorophenyl)ethyl]-1-methyl-2(1H)-quinolinone]: the melting point turned out to be 165 °C.
The value for `CCOC(=O)c1c(Oc2cccc(Cl)c2)c2cc(C(c3ccc(Cl)cc3)c3cnc(-c4ccccc4)[nH]3)ccc2[nH]c1=O` (stereo not shown) [Example B4 F2, 4-(3-chlorophenoxy)-6-[(4-chlorophenyl)(2-phenyl-1H-imidazol-5-yl)methyl]-1,2-dihydro-2-oxo-3-quinolinecarboxylic acid ethyl ester] was 189 °C; that for `O=c1[nH]c2ccc(C(c3ccc(Cl)cc3)n3ccnc3-c3ccccc3)cc2c(Oc2cccc(Cl)c2)c1CO` (stereo not shown) [Example B5, 4-(3-chlorophenoxy)-6-[(4-chlorophenyl)(2-phenyl-1H-imidazol-1-yl)methyl]-3-(hydroxymethyl)-2(1H)-quinolinone] was 246 °C.
`CN(C(=O)c1cc(=O)n(C)c2ccc(C(O)(c3ccc(Cl)cc3)c3cncn3C)cc12)c1cccc(Cl)c1` (stereo not shown) [Example B11, N-(3-chlorophenyl)-6-[(4-chlorophenyl)hydroxy(1-methyl-1H-imidazol-5-yl)methyl]-1,2-dihydro-N,1-dimethyl-2-oxo-4-quinolinecarboxamide] displayed a melting point of 218 °C.
The compound `Cc1cccc(N(C)C(=O)c2cc(=O)n(C)c3ccc(C(O)(c4ccc(Cl)cc4)c4cncn4C)cc23)c1` (stereo not shown) [Example B12, 6-[(4-chlorophenyl)hydroxy(1-methyl-1H-imidazol-5-yl)methyl]-1,2-dihydro-N,1-dimethyl-N-(3-methylphenyl)-2-oxo-4-quinolinecarboxamide] registered a melting point of 185 °C.
On to `Cn1c(=O)cc(CCc2cccc(Cl)c2)c2cc(C(O)(c3ccc(Cl)cc3)c3cccnc3)ccc21` (stereo not shown) [Example B14, 4-[2-(3-chlorophenyl)ethyl]-6-[(4-chlorophenyl)hydroxy-3-pyridinylmethyl]-1-methyl-2(1H)-quinolinone], for which the melting point came to 115 °C.
Compound `Cn1c(=O)cc(CCc2cccc(Cl)c2)c2cc(C(N)(c3ccc(Cl)cc3)c3cccnc3)ccc21` (stereo not shown) [Example B15, 6-[amino(4-chlorophenyl)-3-pyridinylmethyl]-4-[2-(3-chlorophenyl)ethyl]-1-methyl-2(1H)-quinolinone] showed a melting point of 90 °C.
The value for `Cn1cnnc1C(O)(c1ccc(Cl)cc1)c1ccc2c(c1)c(CCc1cccc(Cl)c1)cc(=O)n2C` (stereo not shown) [Example B20, 4-[2-(3-chlorophenyl)ethyl]-6-[(4-chlorophenyl)hydroxy(4-methyl-4H-1,2,4-triazol-3-yl)methyl]-1-methyl-2(1H)-quinolinone] was 200 °C.
